Each structure is given as a SMILES string. Bounds are passed on as bounds.

The experiment concerns Endogenous Huntingtin Protein. The experiment can be described thus: Endogenous Huntingtin Protein Assay (ELISA-based Meso Scale Discovery electrochemiluminescence). It counts as cell-based. The settings on record: MSD electrochemiluminescence, Table 1. Here is the method: Compounds of Formula (I) or Formula (II) were tested using the Meso Scale Discovery (MSD) Assay provided in International Application No. PCT/US2016/066042, filed on Dec. 11, 2016 and claiming priority to U.S. Provisional Application 62/265,652 filed on Dec. 10, 2015, the entire contents of which are incorporated herein by reference.
The Endogenous Huntingtin Protein assay used in Example 1 was developed using the ELISA-based MSD electrochemiluminescence assay platform.
Endogenous Huntingtin Protein Assay
Meso Scale Discovery (MSD) 96-well or 384-well plates were coated overnight at 4° C. with MW1 (expanded polyglutamine) or MAB2166 monoclonal antibody (for capture) at a concentration of 1 μg/mL in PBS (30 μL per well). Plates were then washed three times with 300 μL wash buffer (0.05% Tween-20 in PBS) and blocked (100 μL blocking buffer; 5% BSA in PBS) for 4-5 hours at room temperature with rotational shaking and then washed three times with wash buffer.
Samples (25 μL) were transferred to the antibody-coated MSD plate and incubated overnight at 4° C. After removal of the lysates, the plate was washed three times with wash buffer, and 25 μL of #5656S (Cell signaling; rabbit monoclonal) secondary antibody (diluted to 0.25 μg/mL in 0.05% Tween-20 in blocking buffer) was added to each well and incubated with shaking for 1 Hour at room temperature. Following incubation with the secondary antibody, the wells were rinsed with wash buffer after which 25 μL of goat anti-rabbit SULFO TAG secondary detection antibody (required aspect of the MSD system) (diluted to 0.25 μg/mL in 0.05% Tween-20 in blocking buffer) was added to each well and incubated with shaking for 1 hour at room temperature. After rinsing three times with wash buffer, 150 μL of read buffer T with surfactant (MSD) were added to each empty well, and the plate was imaged on a SI 6000 imager (MSD) according to manufacturers' instructions provided for 96- or 384-well plates.
The IC50 is the concentration at which inhibition is half-maximal. Read a high IC50 as lower potency. In the case of `[2H]C([2H])([2H])n1cc(-c2ccc(-c3cnc(N4CCC(NC(C)(C)C)C4)nn3)c(O)c2)cn1` (stereo not drawn) [Cpd 367, 2-{3-[3-(tert-butylamino)pyrrolidin-l-yl]-1,2,4-triazin-6-yl}-5-[1-(^2H3)methyl-1H-pyrazol-4-yl]phenol], the IC50 was ≤ 100 nM. With `CN1CCC2(CC1)CN(c1ncc(-c3ccc(-c4c[nH]nn4)cc3O)nn1)C2` [Cpd 245, 2-[3-(7-methyl-2,7-diazaspiro[3.5]nonan-2-yl)-1,2,4-triazin-6-yl]-5-(1H-1,2,3-triazol-4-yl)phenol] the figure was ≤ 100 nM.

Consider `CC(C)NC1CCN(c2ncc(-c3ccc(-n4cc(F)cn4)cc3O)nn2)C1` (stereo not drawn) [Cpd 338, 5-(4-fluoro-1H-pyrazol-1-yl)-2-(3-{3-[(propan-2-yl)amino]pyrrolidin-1-yl}-1,2,4-triazin-6-yl)phenol], for which the IC50 lay in the range of 100 to 500 nM. As for `CC(=O)c1cn(-c2ccc(-c3cnc(N(C)C4CC(C)(C)NC(C)(C)C4)nn3)c(O)c2)cn1` [Cpd 140, 1-[1-(3-hydroxy-4-{3-[methyl(2,2,6,6-tetramethylpiperidin-4-yl)amino]-1,2,4-triazin-6-yl}phenyl)-1H-imidazol-4-yl]ethan-l-one], the IC50 is ≤ 100 nM. In the case of `Cc1ncc(-c2ccc(-c3cnc(N4CC5(CCN(C)CC5)C4)nn3)c(O)c2)o1` [Cpd 299, 2-[3-(7-methyl-2,7-diazaspiro[3.5]nonan-2-yl)-1,2,4-triazin-6-yl]-5-(2-methyl-1,3-oxazol-5-yl)phenol], the IC50 was ≤ 100 nM. Consider `CC1CN(c2ncc(-c3ccc(-c4ccn(C)n4)cc3O)nn2)CC(C)N1` (stereo not drawn) [Cpd 263, 2-[3-(3,5-dimethylpiperazin-1-yl)-1,2,4-triazin-6-yl]-5-(1-methyl-1H-pyrazol-3-yl)phenol], for which the IC50 lay in the range of 100 to 500 nM. Take `CN(c1ncc(-c2ccc(-c3ccc4c(cnn4C)n3)cc2O)nn1)C1CC(C)(C)NC(C)(C)C1` [Cpd 198, 5-(1-methyl-1H-pyrazolo[4,3-b]pyridin-5-yl)-2-{3-[methyl(2,2,6,6-tetramethylpiperidin-4-yl)amino]-1,2,4-triazin-6-yl}phenol]: the IC50 was ≤ 100 nM. `Cn1nnc2nc(-c3ccc(-c4cnc(N5CCC(NC(C)(C)C)C5)nn4)c(O)c3)ccc21` (stereo not drawn) [Cpd 215, 2-{3-[3-(tert-butylamino)pyrrolidin1-yl]-1,2,4-triazin-6-yl}-5-(1-methyl-1H-[1,2,3]triazolo[4,5-b]pyridin-5-yl)phenol] yielded an IC50 of 100 to 500 nM. In the case of `Cc1cnc(-c2ccc(-c3cnc(N(C)C4CC(C)(C)NC(C)(C)C4)nn3)c(O)c2)nc1` [Cpd 128, 5-(5-methylpyrimidin-2-yl)-2-{3-[methyl(2,2,6,6-tetramethylpiperidin-4-yl)amino]-1,2,4-triazin-6-yl}phenol], the IC50 was 100 to 500 nM. Turning to `Cn1ccc(-c2ccc(-c3cnc(N[C@H]4CC(C)(C)NC(C)(C)[C@H]4F)nn3)c(O)c2)n1` [Cpd 261, 2-(3-{[(3S,4S)-3-fluoro-2,2,6,6-tetramethylpiperidin-4-yl]amino}-1,2,4-triazin-6-yl)-5-(1-methyl-1H-pyrazol-3-yl)phenol], the IC50 was ≤ 100 nM. In the case of `CN(c1ncc(-c2ccc(-c3cc(=O)n(C)cn3)cc2O)nn1)C1CC(C)(C)NC(C)(C)C1` [Cpd 146, 6-(3-hydroxy-4-{3-[methyl(2,2,6,6-tetramethylpiperidin-4-yl)amino]-1,2,4-triazin-6-yl}phenyl)-3-methylpyrimidin-4(3H)-one], the IC50 is ≤ 100 nM. With `CCNC1CCN(c2ncc(-c3ccc(-c4cn[nH]c4)cc3O)nn2)C1` (stereo not drawn) [Cpd 317, 2-{3-[3-(ethylamino)pyrrolidin-1-yl]-1,2,4-triazin-6-yl}-5-(1H-pyrazol-4-yl)phenol], the IC50 is ≤ 100 nM. `Oc1cc(-c2cn[nH]c2)ccc1-c1cnc(N2CCC(C3(NC4CCOCC4)CC3)C2)nn1` (stereo not drawn) [Cpd 421, 2-[3-(3-{1-[(oxan-4-yl)amino]cyclopropyl}pyrrolidin-1-yl)-1,2,4-triazin-6-yl]-5-(1H-pyrazol-4-yl)phenol]: the IC50 was ≤ 100 nM.

In the case of `CN(c1ncc(-c2ccc(-c3cnc4[nH]ncc4c3)cc2O)nn1)C1CC(C)(C)NC(C)(C)C1` [Cpd 132, 2-{3-[methyl(2,2,6,6-tetramethylpiperidin-4-yl)amino]-1,2,4-triazin-6-yl}-5-(1H-pyrazolo[3,4-b]pyridin-5-yl)phenol], the IC50 was in the range of 100 to 500 nM. Turning to `CN(c1cnc(-c2ccc(-c3ccncc3)cc2O)nn1)C1CC(C)(C)NC(C)(C)C1` [Cpd 382, 2-{6-[methyl(2,2,6,6-tetramethylpiperidin-4-yl)amino]-1,2,4-triazin-3-yl}-5-(pyridin-4-yl)phenol], the IC50 was ≤ 100 nM.

`CN(c1ncc(-c2ccc(-c3ccc4ncn(C)c4n3)cc2O)nn1)C1CC(C)(C)NC(C)(C)C1` [Cpd 163, 5-(3-methyl-3H-imidazo[4,5-b]pyridin-5-yl)-2-{3-[methyl(2,2,6,6-tetramethylpiperidin-4-yl)amino]-1,2,4-triazin-6-yl}phenol]: the IC50 was 1000 to 3000 nM. Consider `COc1cc(-c2ccc(-c3cnc(NC4CC(C)(C)NC(C)(C)C4)nn3)c(O)c2)ncn1` [Cpd 254, 5-(6-methoxypyrimidin-4-yl)-2-{3-[(2,2,6,6-tetramethylpiperidin-4-yl)amino]-1,2,4-triazin-6-yl}phenol], for which the IC50 is ≤ 100 nM. With `CC(C)(C)N[C@H]1CCN(c2ncc(-c3ccc(-c4cn[nH]c4)cc3O)nn2)C1` [Cpd 355, 2-{3-[(3S)-3-(tert-butylamino)pyrrolidin-l-yl]-1,2,4-triazin-6-yl}-5-(1H-pyrazol-4-yl)phenol] the figure was ≤ 100 nM; with `CC(C)(C)NC1CCN(c2ncc(-c3ccc(-c4c[nH]nn4)cc3O)nn2)C1` (stereo not drawn) [Cpd 225, 2-{3-[3-(tert-butylamino)pyrrolidin-1-yl]-1,2,4-triazin-6-yl}-5-(1H-1,2,3-triazol-4-yl)phenol], ≤ 100 nM. Then `CC1(C)CC(Nc2cnc(-c3ccc(-c4cn[nH]c4)cc3O)nn2)CC(C)(C)N1` [Cpd 396, 5-(1H-pyrazol-4-yl)-2-{6-[(2,2,6,6-tetramethylpiperidin-4-yl)amino]-1,2,4-triazin-3-yl}phenol], with ≤ 100 nM; and `[2H]C([2H])([2H])n1cc(-c2ccc(-c3ncc(NC4CC(C)(C)NC(C)(C)C4)nn3)c(O)c2)cn1` [Cpd 424, 5-[1-(^2H3)methyl-1H-pyrazol-4-yl]-2-{6-[(2,2,6,6-tetramethylpiperidin-4-yl)amino]-1,2,4-triazin-3-yl}phenol], with ≤ 100 nM.

As for `CC(C)(C)N[C@@H]1CCN(c2ncc(-c3ccc(-c4c[nH]nc4F)cc3O)nn2)C1` [Cpd 379, 2-{3-[(3R)-3-(tert-butylamino)pyrrolidin-1-yl]-1,2,4-triazin-6-yl}-5-(3-fluoro-1H-pyrazol-4-yl)phenol], the IC50 is ≤ 100 nM.

Regarding `Cc1ccnc(-c2ccc(-c3cnc(N(C)C4CC(C)(C)NC(C)(C)C4)nn3)c(O)c2)n1` [Cpd 129, 5-(4-methylpyrimidin-2-yl)-2-{3-[methyl(2,2,6,6-tetramethylpiperidin-4-yl)amino]-1,2,4-triazin-6-yl}phenol], the IC50 fell in the range of 100 to 500 nM.

As to `CC(C)NC1CCN(c2ncc(-c3ccc(-c4cnn(C)c4)cc3O)nn2)C1` (stereo not drawn) [Cpd 203], the half-inhibitory concentration (IC50) was ≤ 100 nM. With `CN(c1ncc(-c2ccc(-c3nccs3)cc2O)nn1)C1CC(C)(C)NC(C)(C)C1` [Cpd 58, 2-{3-[methyl(2,2,6,6-tetramethylpiperidin-4-yl)amino]-1,2,4-triazin-6-yl}-5-(1,3-thiazol-2-yl)phenol] the figure was ≤ 100 nM; with `CN(c1ncc(-c2ccc(-c3cc(F)ccn3)cc2O)nn1)C1CC(C)(C)NC(C)(C)C1` [Cpd 98, 5-(4-fluoropyridin-2-yl)-2-{3-[methyl(2,2,6,6-tetramethylpiperidin-4-yl)amino]-1,2,4-triazin-6-yl}phenol], 100 to 500 nM. Take `CC(C)(C)NC1CCN(c2ncc(-c3ccc(-c4c[nH]nc4Cl)cc3O)nn2)C1` (stereo not drawn) [Cpd 365, 2-{3-[3-(tert-butylamino)pyrrolidin-l-yl]-1,2,4-triazin-6-yl}-5-(3-chloro-1H-pyrazol-4-yl)phenol]: the IC50 was ≤ 100 nM.

In turn, `CN(c1ncc(-c2ccc(-c3ccnn3C)cc2O)nn1)C1CC(C)(C)NC(C)(C)C1` [Cpd 124, 5-(1-methyl-1H-pyrazol-5-yl)-2-{3-[methyl(2,2,6,6-tetramethylpiperidin-4-yl)amino]-1,2,4-triazin-6-yl}phenol] had an IC50 of 100 to 500 nM.

On to `CN(c1ncc(-c2ccc(-n3ncc(CO)n3)cc2O)nn1)C1CC(C)(C)NC(C)(C)C1` [Cpd 172, 5-[4-(hydroxymethyl)-2H-1,2,3-triazol-2-yl]-2-{3-[methyl(2,2,6,6-tetramethylpiperidin-4-yl)amino]-1,2,4-triazin-6-yl}phenol], for which the IC50 was ≤ 100 nM. Take `CN(c1ncc(-c2ccc(-c3cc(CN)c4nccn4n3)cc2O)nn1)C1CC(C)(C)NC(C)(C)C1` [Cpd 351, 5-[8-(aminomethyl)imidazo[1,2-b]pyridazin-6-yl]-2-{3-[methyl(2,2,6,6-tetramethylpiperidin-4-yl)amino]-1,2,4-triazin-6-yl}phenol]: the half-maximal inhibitory concentration (IC50) is ≤ 100 nM.

For the origin of these results see patent US11780839B2, “Compounds for treating Huntington's disease” (PTC THERAPEUTICS, INC., priority 2018, dated 2023).
